Assay: Temperature cycling / physical stability of solvents, systems and formulations
Assay type: physicochemical
Protocol: Temperature Cycling of Selected Solvents and Solubility Systems was studied. Systems were prepared at ambient temperature, with mixed solvent in the weight ratios reported in brackets. Mitotane, 0.25 grams, was then added to 1 gram of each solvent or solvent mixture. Samples were placed in the refrigerator (5° C.±3° C.) and observations were recorded. The samples were then left at ambient temperature for 24 hours, and observations recorded. The samples were then placed in a 40° C. oven, and final observation was made after another 24 hours. These observations are recorded in the table below.
Based on these studies, several formulations were prepared (see Tables 10 and 11). Temperature cycling was tested to evaluate the physical stability of the three formulations F-2772-054 (33.3% drug w/w), F-2772-055 (20.0% drug w/w), and F-2772-057 (33.3% drug w/w) as well as formulations F-2772-054 and 057 at 28.5% drug w/w. […] Temperature cycling consisted of three stages for 24 hour periods; refrigeration (5° C.), 40° C. conventional oven, and room temperature. After each 24 hour cycle, solutions were evaluated for clarity.

Which “Highest mitotane concentration trial found to be the most stable” value does the source give for `Clc1ccc(C(c2ccccc2Cl)C(Cl)Cl)cc1` (centres unmarked) [mitotane, Mitotane] here?
Its value is 28.5 % weight/weight.

What about the “Highest most stable mitotane concentration expressed as drug loading” value (28.5/(100-28.5)) of the same molecule?
Its value is 40 % drug loading.

Reference: patent US9770509B2, “Self micro-emulsifying drug delivery system with increased bioavailability” (Pharmaceutics International, Inc., priority 2010, dated 2017)
